From ChEMBL document CHEMBL1124186, “Synthesis and evaluation of tylosin-related macrolides modified at the aldehyde function: a new series of orally effective antibiotics” (1988)
In brackets after ≈: the same amount, converted by molar mass.

Columns and labels:
[1] = In vitro antimicrobial activity against anaerobic bacteria peptostreptococcus intermedius 1264; type: functional
[2] = test system: Staphylococcus epidermidis; assay: In vitro antimicrobial activity against Staphylococcus epidermidis EPI1; type: functional
[3] = test system: Peptostreptococcus anaerobius; assay: In vitro antimicrobial activity against anaerobic bacteria eubacterium peptostreptococcus anaerobius 1428,; type: functional
Haemophilus influenzae = assay: In vitro antimicrobial activity against Haemophilus influenzae.; type: functional
[4] = test system: Fusobacterium necrophorum; assay: In vitro antimicrobial activity against anaerobic bacteria usobacterium necrophorum 6054A; type: functional
[5] = test system: Prevotella melaninogenica; assay: In vitro antimicrobial activity against anaerobic bacteria bacteroides melaninogenicus 2736; type: functional
Streptococcus pyogenes [6] = assay: In vivo effective dose against experimental infections in rodent caused by Streptococcus pyogenes C203 when administered sc; type: functional
Cutibacterium acnes = assay: In vitro antimicrobial activity against anaerobic bacteria propionibacterium acnes 79; type: functional
Clostridium septicum = assay: In vitro antimicrobial activity against anaerobic bacteria clostridium septicum 1128; type: functional
Chlamydia trachomatis = assay: In vitro antimicrobial activity against chlamydia trachomatis.; type: functional
Collinsella aerofaciens = assay: In vitro antimicrobial activity against anaerobic bacteria eubacterium aerofaciens 1235; type: functional
Phocaeicola vulgatus = assay: In vitro antimicrobial activity against anaerobic bacteria bacteroides vulgatus 1211; type: functional
Streptococcus pyogenes [7] = assay: In vitro antimicrobial activity against Streptococcus pyogenes C203; type: functional
Eikenella corrodens = assay: In vitro antimicrobial activity against anaerobic bacteria bacteroides corrodens 1874; type: functional
[8] = test system: Peptoniphilus asaccharolyticus; assay: In vitro antimicrobial activity against anaerobic bacteria peptococcus asaccharolyticus 1302; type: functional
[9] = test system: Bacteroides thetaiotaomicron; assay: In vitro antimicrobial activity against anaerobic bacteria bacteroides thetaiotaomicron 1438; type: functional
Enterococcus faecium = assay: In vitro antimicrobial activity against Streptococcus faecium X66; type: functional, streptococcus fae-cium
Anaerococcus prevotii = assay: In vitro antimicrobial activity against anaerobic bacteria peptococcus prevoti 1281; type: functional
Streptococcus pneumoniae = assay: In vitro antimicrobial activity against Streptococcus pneumoniae; type: functional
Bacteroides fragilis [10] = assay: In vitro antimicrobial activity against anaerobic bacteria bacteroides fragilis 111; type: functional
Clostridioides difficile = assay: In vitro antimicrobial activity against anaerobic bacteria Clostridium difficile 2994; type: functional
Streptococcus pyogenes [11] = assay: In vivo effective dose against experimental infections in rodent caused by Streptococcus pyogenes C203 when administered orally; type: functional; conditions: po
Staphylococcus aureus = assay: In vitro antimicrobial activity against Staphylococcus aureus X1; type: functional
[12] = test system: Prevotella melaninogenica; assay: In vitro antimicrobial activity against anaerobic bacteria bacteroides melaninogenicus 1856,; type: functional
Fusobacterium = assay: In vitro antimicrobial activity against anaerobic bacteria fusobacterium symbiosum 1470; type: functional
Bacteroides fragilis [13] = assay: In vitro antimicrobial activity against anaerobic bacteria bacteroides fragilis 1936B,; type: functional
Clostridium perfringens = assay: In vitro antimicrobial activity against anaerobic bacteria clostridium perfringens 81,; type: functional
Bacteroides fragilis [14] = assay: In vitro antimicrobial activity against anaerobic bacteria bacteroides fragilis 1877; type: functional

Compound	MIC [2]	MIC (Haemophilus influenzae)	ED50 (Streptococcus pyogenes [6])	MIC (Streptococcus pyogenes [7])	MIC (Enterococcus faecium)	MIC (Streptococcus pneumoniae)	ED50 (Streptococcus pyogenes [11])	MIC (Staphylococcus aureus)	also measured
CC[C@H]1C[C@@H](C)C(=O)/C=C/C(C)=C/[C@H](CO)[C@@H](CC)OC(=O)C[C@@H](O)[C@H](C)[C@H]1O[C@@H]1O[C@H](C)[C@@H](O)[C@H](N(C)C)[C@H]1O	8 µg/mL (≈ 13.7 µM)	32 µg/mL (≈ 54.8 µM)	> 30 mg/kg	8 µg/mL (≈ 13.7 µM)	16 µg/mL (≈ 27.4 µM)	8 µg/mL (≈ 13.7 µM)	75 mg/kg	4 µg/mL (≈ 6.85 µM)	MIC [1]: > 8 µg/mL; MIC [3]: > 8 µg/mL; MIC [4]: 8 µg/mL (≈ 13.7 µM); MIC [5]: > 8 µg/mL; MIC (Cutibacterium acnes): 2 µg/mL (≈ 3.43 µM); MIC (Clostridium septicum): 2 µg/mL (≈ 3.43 µM); MIC (Chlamydia trachomatis): 0.5 µg/mL (≈ 0.857 µM); MIC (Collinsella aerofaciens): 2 µg/mL (≈ 3.43 µM); MIC (Phocaeicola vulgatus): > 8 µg/mL; MIC (Eikenella corrodens): > 8 µg/mL; MIC [8]: > 8 µg/mL; MIC [9]: > 8 µg/mL; MIC (Anaerococcus prevotii): > 8 µg/mL; MIC (Bacteroides fragilis [10]): > 8 µg/mL; MIC (Clostridioides difficile): 2 µg/mL (≈ 3.43 µM); MIC [12]: > 8 µg/mL; MIC (Fusobacterium): > 8 µg/mL; MIC (Bacteroides fragilis [13]): > 8 µg/mL; MIC (Clostridium perfringens): 2 µg/mL (≈ 3.43 µM); MIC (Bacteroides fragilis [14]): > 8 µg/mL
CC[C@H]1OC(=O)C[C@@H](O)[C@H](C)[C@@H](O[C@@H]2O[C@H](C)[C@@H](O)[C@H](N(C)C)[C@H]2O)[C@@H](CCOc2ncnc3ccccc23)C[C@@H](C)C(=O)/C=C/C(C)=C/[C@@H]1CO[C@@H]1O[C@H](C)[C@@H](O)[C@@H](OC)[C@H]1OC	0.25 µg/mL (≈ 0.277 µM)	16 µg/mL (≈ 17.7 µM)	5.4 mg/kg	0.5 µg/mL (≈ 0.554 µM)	4 µg/mL (≈ 4.43 µM)	0.5 µg/mL (≈ 0.554 µM)	> 50 mg/kg	0.25 µg/mL (≈ 0.277 µM)	–
CC[C@H]1OC(=O)C[C@@H](O)[C@H](C)[C@@H](O[C@@H]2O[C@H](C)[C@@H](O)[C@H](N(C)C)[C@H]2O)[C@@H](CCS(=O)(=O)c2ccc(C)cc2)C[C@@H](C)C(=O)/C=C/C(C)=C/[C@@H]1CO[C@@H]1O[C@H](C)[C@@H](O)[C@@H](OC)[C@H]1OC	0.25 µg/mL (≈ 0.274 µM)	16 µg/mL (≈ 17.5 µM)	4.2 mg/kg	1 µg/mL (≈ 1.1 µM)	8 µg/mL (≈ 8.77 µM)	1 µg/mL (≈ 1.1 µM)	> 50 mg/kg	0.25 µg/mL (≈ 0.274 µM)	–
